Experimental data: patent US20190359653A1, “SELECTIVE PEPTIDE INHIBITORS OF FRIZZLED” (Genentech, Inc., priority 2016, published 2019)
“Also recorded” adds a separate entry of the source. Peptide text beside a SMILES is read from it. * marks the point of attachment. 5FAM = O=C1OC2(c3ccc(O)cc3Oc3cc(O)ccc32)c2ccc(C(=O)*)cc21

How the values were obtained:
FZD CRD-Fc proteins = experiment: fluorescence size-exclusion chromatography (FSEC) with FZD CRD-Fc proteins; type: binding; conditions: 1 μM peptide, 250 nM FZD CRD-Fc, overnight at 4° C.; FZD1, FZD2 and FZD7 CRD-Fc
Procedure: (§1) Fluorescence size-exclusion chromatography (FSEC) experiments were run using an AKTA FPLC system (General Electric Company) with UNICORN software package (version 5.31). Samples were resolved using a SEC3000 or SEC2000 (Phenomenex; Torrence, Calif.) column at 0.5 mL/min in phosphate buffer. Fluorescence was monitored using a FP-2020 Plus fluorescence detector (Jasco Analytical Instruments, Easton, Md.) in normal mode (excitation/emission, […]; gain=100; STD=32). All samples were prepared with a final DMSO concentration of 1% and incubated overnight at 4° C. prior to sample separation. FZD CRD-Fc samples were kept at ˜250 nM in the presence of excess 5FAM labeled peptide (1 μM). […]
Selective targeting of the FZD7 receptor subclass was also observed chromatographically. […] See FIGS. 4A and 4B, which provide representative fluorescence traces of 1 μM 5FAM-Fz7-21 and 1 μM 5FAM-Fz7-21S, respectively, incubated with various FZD CRD-Fc proteins (250 nM) overnight at 4° C. prior to analysis by FSEC. […] In FIG. 24A, molecular weight (MW) standards analyzed by UV absorption were plotted as a function of elution volume (Ve) over void volume (Vo). […] Measured values represent the mean±standard deviation (SD) of three independent experiments. […] Binding to recombinant FZD3 and 6 CRDs could not be assessed due to challenges with the expression of these proteins. […]

[1] = test system: human sFRP1, sFRP2, sFRP3, sFRP4, or sFRP5; experiment: FSEC with secreted Frizzled-related proteins; type: binding; conditions: sFRP ~250 nM, peptide 10 μM
Procedure: as §1, with “μM). Human secreted Frizzled-related proteins were maintained at ˜250 nM in the presence of excess 5FAM-labeled peptide (10 μM).” for “μM).”
For FIGS. 4C and 5C, values represent the mean±s.e.m. of three independent experiments. […] Samples were resolved using a SEC3000 column (Phenomenex; Torrence, Calif.) at 0.5 mL/min in phosphate buffer saline (PBS) and fluorescence was monitored with an FP-2020 Plus fluorescence detector (Jasco Analytical Instruments, Easton, Md.) using normal mode (excitation/emission […]); gain=100; STD=32. […] Molecular weights were determined by standards (BioRad catalogue number, 151-1901) run prior to sample runs.

FZD CRD-Fc = experiment: binding of 5FAM peptides to the FZD CRD-Fc panel; conditions: any members of the FZD CRD family
Procedure: Control experiments using 5FAM-Fz7-21S were performed in parallel. 5FAM-Fz7-21 or 5FAM-Fz721S was incubated with each of the aforementioned FZD CRD-Fcs overnight at 4° C. in PBS and resolved via SEC.
In FIGS. 3A-3I, 5FAM-Fz7-21 or 5FAM-Fz7-21S (50 nM in PBS) was incubated with increasing concentration of FZD CRD-Fc (2-fold serial dilutions), and fluorescence intensity was measured using either a Monolith NT.115 or NT.115Pico instrument (NanoTemper Technologies). EC50 values represent the 95% confidence interval of at least three independent experiments, excepting hFZD1 CRD-Fc+5FAM-Fz7-21S, which was done twice. EC50 ovalues were calculated with Prism Graphpad using the Log(agonist) vs. response [variable slope (four parameters) function: Y=Bottom+(Top-Bottom)/(1+10^((Log EC−X)*HillSlope))]. Plotted values represent the mean±s.e.m.

[2] = test system: receptor-independent β-catenin signaling in 6-BIO-treated HEK293-TB cells; experiment: epistasis study, HEK293-TB cells stimulated with 6-BIO; type: cell-based; conditions: 10 μM 6-BIO, 6 hr; FIG. 2E
[3] = test system: Wnt5a binding to FZD1 CRD, FZD2 CRD, and FZD7 CRD; experiment: ELISA of biotinylated Wnt5a binding to FZD CRD-Fc; conditions: FIGS. 22A, 22B
Procedure: (§2) 384-well Maxisorp plates (cat. no. 464718; Thermo Scientific) were incubated with 30 μL of Neutravidin (cat. no. 31000, Thermo Scientific; 2 μg/mL in PBS) overnight at 4° C. Plates were then washed with PBST and blocked with PBS/1% BSA for 1 hour at RT and then washed with PBST prior to further processing. The binding assay was conducted in 96 well plates (cat no. 83007-374; VWR) which were blocked with PBS/1% BSA overnight at 4° C. hFZD4 CRD-Fc or hFZD7 CRD-Fc (63 ng/mL) were incubated with either Bio-Wnt3a (25 ng/mL) or Bio-Wnt5a (50 ng/mL) in the presence of 4-fold serial dilutions of the indicated peptide in PBS overnight at 4° C. All assays included hFZD9 CRD-mIgG2A protein as a negative control. hFZD7 CRD-His was suspended in 150 mM NaCl, 50 mM Tris-HCl at pH 7.5 and when used in assays an equal volume of the same buffer control was used. The binding assay mixtures were transferred to the Neutravidin coated plates and incubated for ˜1 h at RT. The wells were then washed with PBST, incubated with anti-hIgG1-HRP (1:10,000 suspended in PBS supplemented with 1% BSA; cat. no. A18817, Invitrogen), and washed again with PBST. The signal was developed with the addition of TMB reagent (following the manufacturer's recommendation; KPL; 50-76-00) for 15 min prior to the addition of an equal volume of 1 M phosphoric acid for 10 min Absorbance was measured at 450 nm using a Tekan M1000 plate reader. Values were collected and plotted using Prism Graphpad software. All assay conditions using peptides were at 1% DMSO final concentration. […]
(§3) Briefly, the assays were performed using (a) FZD1 CRD-Fc, (b) FZD2 CRD-Fc, (c) FZD4 CRD-Fc, or (d) FZD7 CRD-Fc as the capture reagent and biotinylated-Wnt5a as the detection reagent. […] Streptavidin-HRP was used to detect biotinylated Wnt5a, and HRP activity was measured as a function of chemiluminescence detection at 428 nm. […]

[4] = test system: Wnt3a-mediated β-catenin signaling in HEK293-TB cells; type: cell-based
[5] = molecular target: T1, Wnt5a binding to FZD4 CRD (Homo sapiens, UniProt Q9ULV1); experiment: ELISA of biotinylated Wnt5a binding to FZD CRD-Fc; conditions: peptide 0-10 μM
T1 construct: hFZD4 CRD-Fc (cat no. 5847-FZ); purchased R&D systems 5847-FZ
T1 sequence (Q9ULV1 40-161 limits assumed): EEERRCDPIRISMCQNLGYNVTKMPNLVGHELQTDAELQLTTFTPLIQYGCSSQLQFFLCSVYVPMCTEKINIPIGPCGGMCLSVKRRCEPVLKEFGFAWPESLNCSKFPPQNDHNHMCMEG
Procedure: as §2, §3

[6] = test system: Wnt3a-mediated stabilization of β-catenin in mouse L cells; experiment: in-cell western of β-catenin protein in L cells treated with Wnt3a; type: cell-based
Procedure: DMSO controls were performed in parallel. Following treatment, the L-cells were fixed, permeabilized, probed with fluorescently labeled anti-β-catenin antibodies, and observed via in-cell western assay (i.e., as described in Hannoush, R. N. (2008) PLoS One 3, e3498) to assess β-catenin protein levels. The values in Table 7 are averages of at least 3 independent replicates, ±standard deviation.

[7] = molecular target: T2, Wnt3a binding to FZD4 CRD (Homo sapiens, UniProt Q9ULV1); experiment: ELISA of biotinylated Wnt3a binding to FZD CRD-Fc; conditions: peptide 0-10 μM
T2 construct: hFZD4 CRD-Fc (cat no. 5847-FZ); purchased R&D systems 5847-FZ
T2 sequence (Q9ULV1 40-161 limits assumed): T1 sequence (Q9ULV1 40-161 limits assumed)
Procedure: 384-well Maxisorp plates (cat. no. 464718; Thermo Scientific) were incubated with 30 μL of Neutravidin (cat. no. 31000, Thermo Scientific; 2 μg/mL in PBS) overnight at 4° C. Plates were then washed with PBST and blocked with PBS/1% BSA for 1 hour at RT and then washed with PBST prior to further processing. The binding assay was conducted in 96 well plates (cat no. 83007-374; VWR) which were blocked with PBS/1% BSA overnight at 4° C. hFZD4 CRD-Fc or hFZD7 CRD-Fc (63 ng/mL) were incubated with either Bio-Wnt3a (25 ng/mL) or Bio-Wnt5a (50 ng/mL) in the presence of 4-fold serial dilutions of the indicated peptide in PBS overnight at 4° C. All assays included hFZD9 CRD-mIgG2A protein as a negative control. hFZD7 CRD-His was suspended in 150 mM NaCl, 50 mM Tris-HCl at pH 7.5 and when used in assays an equal volume of the same buffer control was used. The binding assay mixtures were transferred to the Neutravidin coated plates and incubated for ˜1 h at RT. The wells were then washed with PBST, incubated with anti-hIgG1-HRP (1:10,000 suspended in PBS supplemented with 1% BSA; cat. no. A18817, Invitrogen), and washed again with PBST. The signal was developed with the addition of TMB reagent (following the manufacturer's recommendation; KPL; 50-76-00) for 15 min prior to the addition of an equal volume of 1 M phosphoric acid for 10 min Absorbance was measured at 450 nm using a Tekan M1000 plate reader. Values were collected and plotted using Prism Graphpad software. All assay conditions using peptides were at 1% DMSO final concentration.
Without being bound be theory, the substantial conformational change induced by dFz7-21 on hFZD7 CRD, as exemplified by the altered geometry of the lipid binding cavity, may facilitate the accommodation of two Wnt molecules simultaneously onto the hFZD7 CRD dimer (FIG. 4e-h).
Similar results were observed using Wnt3a. […] Binding of Wnt3a to FZD1 CRD, FZD2 CRD, and FZD7 CRD increased in the presence of dFz7-21 at concentrations below about 0.5 μM (FIG. 22E), with the most binding seen in the presence of 0.01 μM-0.05 μM dFz7-21. […] Fz7-21S had no effect on Binding of Wnt3a to any of the FZD CRDs tested (FIG. 22F).

hFZD7 CRD-His = molecular target: T3, hFZD7 CRD-His (Homo sapiens, UniProt O75084); experiment: SEC-MALS of hFZD7 CRD-His incubated with peptide; type: binding
T3 construct: hFZD7 CRD-His [Gln33-Gly168] was expressed as a secreted protein in Trichoplusia ni cells expressing EndoH; made in house; host or cells: Trichoplusia ni cells expressing EndoH, treated with Kifunensine (baculovirus)
Procedure: Samples were resolved by a Superdex S200 3.2/300 column (General Electric Healthcare Life Science, Pittsburgh, Pa.; cat. no. 28990946) at 0.15 mL/min in 150 mM NaCl, 50 mM Tris-HCl pH 7.5 buffer with 1% DMSO final concentration. Runs were performed on a 1260 infinity HPLC (Agilent Technology, Santa Clara, Calif.) connected to a Dawn Heleos-II multi-angle static Light Scattering (MALS) detector and a Optilab T-rEX differential Refractive Index (dRI) detector (Wyatt Technologies, Santa Barbara, Calif.).
Samples were resolved by a Superdex S200 3.2/300 column (General Electric Healthcare Life Science, Pittsburgh, Pa.; 28990946) at a 0.15 mL/min in 150 mM NaCl, 50 mM Tris-HCl pH 7.5 buffer with 1% DMSO final concentration. Column was connected to a 1260 infinity HPLC (Agilent Technology, Santa Clara, Calif.) connected to a Dawn Heleos-II Multi-Angle static Light Scattering (MALS) detector and the Optilab T-rEX differential Refractive Index (dRI) detectors (Wyatt Technologies, Santa Barbara, Calif.).

| Compound | complex with FZD CRD-Fc resolved by FSEC (FZD CRD-Fc proteins) | binding to sFRPs by FSEC [1] | binding (FZD CRD-Fc) | inhibition of Wnt signaling in 6-BIO-treated cells [2] | peptide concentration with the most Wnt5a binding [3] | HEK293S-TB % Remaining Activity ([4]; measured at 100 μM peptide, mean ± standard deviation) | IC50 ([4]; read-out: IC50, Wnt3a-stimulated β-catenin signaling) | effect on Wnt5a binding to FZD4 CRD [5] | L CELLS % Remaining Activity ([6]; measured at 11.11 μM of peptide) | Wnt3a-mediated stabilization of β-catenin ([6]; mouse L cells) | IC50 ([6]; β-catenin by immunofluorescence, Wnt3a 2.5 nM, 5 hours, mean ± standard deviation) | effect on Wnt3a binding to FZD4 CRD [7] | ΔMW (kDa) (hFZD7 CRD-His; 1:5, relative to the DMSO control) | homodimerization or oligomerization of hFZD7 CRD-His (hFZD7 CRD-His; concentration-dependent) | MW (kDa) (hFZD7 CRD-His; hFZD7 CRD 15.8 μM, protein:peptide 1:1, 2 h) | MW (kDa) (hFZD7 CRD-His; protein:peptide 1:5) | MW (kDa) (hFZD7 CRD-His; protein:peptide 1:10) |
| --- | --- | --- | --- | --- | --- | --- | --- | --- | --- | --- | --- | --- | --- | --- | --- | --- | --- |
| CSCC[C@H](NC(=O)[C@@H](NC(=O)[C@H](Cc1c[nH]cn1)NC(=O)[C@H](CO)NC(=O)[C@H](Cc1c[nH]c2ccccc12)NC(=O)[C@H](Cc1ccccc1)NC(=O)[C@H](CCC(=O)O)NC(=O)[C@H](CC(C)C)NC(=O)[C@H](CC(=O)O)NC(=O)[C@H](CC(=O)O)NC(=O)[C@H](CO)NC(=O)[C@@H]1CCCN1C(=O)[C@H](CC(C)C)NC(=O)c1ccc2c(c1)C(=O)OC21c2ccc(O)cc2Oc2cc(O)ccc21)C(C)C)C(=O)N[C@@H](Cc1ccc(O)cc1)C(N)=O [5FAM-Fz7-21S] (5FAM-LPSDDLEFWSHVMY-NH2; N-terminus and C-terminus assumed) | no complex was observed | not found to bind | no detectable binding | – | – | – | – | – | – | – | – | – | – | – | – | – | – |
| LPSDDLEFWCHVMY [Fz7-21] | – | – | – | Neither Fz7-21 nor Fz7-21S inhibited | 0.1 µM | 5.15 ± 2.88% | 90 to 100 nM | did not show any effect; also recorded: no such effect | 50.98^G ± 3.76% | blocked | 50 ± 30 nM | did not show any effect; also recorded: Neither Fz7-21 nor dFz7-21 had any effect | 6.4 kDa | induced homodimerization or oligomerization | 21.9 kDa | 27.3 kDa | 32 kDa |
